Measurements reported in US20230257444A1, “FUSION PROTEIN AND COMBINATIONS THEREOF” (Agency for Science, Technology and Research, priority 2020, published 2023).

Tests used:
[1] = test system: Candida albicans; assay: Minimum inhibitory concentration assay (CLSI reference method); type: cell-based; conditions: 37° C.
Text: Linker conjugation site and its length can affect the activity of drug in the way it is able to interact with its target as a result of a change in preferred conformation. Amphotericin B has two possible sites of conjugation: the carboxylic acid on the macrocyclic ring (C-linked) and the amine on the sugar (N-linked). To investigate how conjugation to each of these sites affects the activity of Amphotericin B, polyethylene glycol (PEG) linkers of three different repeat units were attached to them (FIG. 20) and their MIC of Candida albicans evaluated against the unconjugated free Amphotericin B.
The MIC assay of the N-linked and C-linked PEG conjugated Amphotericin B was conducted for 3 different PEG lengths of 4, 12 and 24 repeat units versus unconjugated Amphotericin B (Table 3). The PEG conjugated Amphotericin B and free Amphotericin B were diluted and incubated at 37° C. for 24 hrs with […] Candida albicans cells/well according to the CLSI reference method for antifungal susceptibility testing of yeasts.

[2] = test system: SC5314 Candida albicans; assay: In vitro combination therapy checkerboard dilution assay (Amphotericin B & hDectin1-Fc) with human primary macrophages; type: cell-based; conditions: 24 hours, 37° C.

- 24hr MIC [1]: 0.75 μm
SMILES: C[C@@H]1[C@H](O)[C@@H](C)/C=C/C=C/C=C/C=C/C=C/C=C/C=C/[C@H](O[C@@H]2O[C@H](C)[C@@H](O)[C@H](N)[C@@H]2O)C[C@@H]2O[C@](O)(C[C@@H](O)C[C@@H](O)[C@H](O)CC[C@@H](O)C[C@@H](O)CC(=O)O[C@H]1C)C[C@H](O)[C@H]2C(=O)O [Amphotericin B]
- basal MFC of Amphotericin B ([2]; absence of hDectin1-Fc): 0.11 µM
- MFC of Amphotericin B ([2]; hDectin1-Fc concentration of 100 µg/ml): 0.06 µM
